Experiments:
[1] = system: PHTX-09C (Colorectal); experiment: In vivo combination study, Patient Derived Xenograft; design: species or system mouse; settings: PHTX-09C (155 mm^3)
[2] = system: H-1650 (Lung); experiment: In vitro combination study for selected compounds, additional cell lines; format: cell-based; settings: drug combined with Compound 1
Protocol: (§1) In vitro anti-proliferative effects of selected compounds were tested in additional cell lines, including ovarian cancer (SKOV3) and pancreatic cancer (MIA-PACA-2) cell lines.

[3] = system: ovarian cancer (SKOV3) cell line; experiment: as above; format: cell-based; settings: drug combined with Compound 1
Protocol: as §1

[4] = system: pancreatic cancer (MIA-PACA-2) cell line; experiment: as above; format: cell-based; settings: drug combined with Compound 1
Protocol: as §1

[5] = system: CALU6 (Lung); experiment: as above; format: cell-based; settings: drug combined with Compound 1
Protocol: as §1

[6] = system: PHTXM-35Es human primary esophagus cancer xenografts; experiment: In vivo combination study, Patient Derived Xenograft; design: species or system mouse
Protocol: (§2) To investigate in vivo antitumor activity of Compound 1 in combination with other agents, tests using Cell Derived Xenograft (CDX), Patient Derived Xenograft (PDX) and Syngeneic mouse tumor isograft model were conducted. Cells or Patient Derived Tumors were inoculated by one method of the following two methods (Method A and B) as shown Table 7.
(§3) Method A; Cells were maintained in either immune deficient nude mice or immune competent mice by subcutaneous inoculation of tumor cells at various concentrations into respected mice. Method B: Patient Derived Tumor s were maintained in nude mice by subcutaneous inoculation of tumor pieces (approx. 2×2×2 mm) into nude mice. Mice with tumor size of approximately 50 mm^3 (e.g., 40-75 mm^3) for syngeneic mouse studies or 200 mm^3 (e.g., 110-270 mm^3) for xenograft studies were randomly assigned to dose groups on the day (Day 0) before start date of dosing.
(§4) Compound 1 (crystalline form I) was suspended in 0.5 w/v % methylcellulose and administered orally to mice. Antibodies which administered in the experiment were described in Table 8.
(§5) Tumor size was measured by caliper and tumor volume was estimated using the equation V=(LW^2)/2, where L and W are tumor length and width, respectively and reported in cubic millimeters.
(§6) These values were compared across treatment groups to assess whether the differences in the trends over time were statistically significant. To compare pairs of treatment groups, the following mixed-effects linear regression model was fit to the data using the maximum likelihood method:
(§7) For synergy analyses, the observed differences in the log tumor values were used to calculate AUC values for each animal. In instances when an animal in a treatment group was removed from the study, the last observed tumor value was carried forward through all subsequent time points. The AUC for the control, or vehicle, group was calculated using the predicted values from the pairwise models described above. We defined a measure of synergy as follows:
(§8) where Ak and Bk are the k^th animal in the individual treatment groups and ABk is the k^th animal in combination treatment group. AUCcd is the model-predicted AUC for the control group and was treated as a constant with no variability. The standard error of the synergy score was calculated as the square root of the sum of squared standard errors across groups A, B, and AB. The degrees of freedom were estimated using the Welch-Satterthwaite equation. A hypothesis test was performed to determine if the synergy score differed from 0. P values were calculated by dividing the synergy score by its standard error and tested against a t-distribution (two-tailed) with the above-calculated degrees of freedom.
(§9) The effect was classified into four different categories. It was considered synergistic if the synergy score was less than 0 and additive if the synergy score wasn't statistically different from 0. If the synergy score was greater than zero, but the mean AUC for the combination was lower than the lowest mean AUC among the two single agent treatments, then the combination was sub-additive. If the synergy score was greater than zero, and the mean AUC for the combination was greater than the mean AUC for at least one of the single agent treatments, then the combination was antagonistic.

[7] = system: PHTXM-90Es (Esophagus); experiment: as above; design: species or system mouse
Protocol: as §2, §3, §4, §5, §6, §7, §8, §9

[8] = system: PHTXM-79Es human primary esophagus cancer xenografts; experiment: as above; design: species or system mouse; key to Result (combination with Compound 1, tumor growth): synergistic if the synergy score was less than 0; additive if the synergy score wasn't statistically different from 0; If the synergy score was greater than zero, but the mean AUC for the combination was lower than the lowest mean AUC among the two single agent treatments, then the combination was sub-additive; If the synergy score was greater than zero, and the mean AUC for the combination was greater than the mean AUC for at least one of the single agent treatments, then the combination was antagonistic; settings: for antitumor activity: combined with Compound 1, PHTXM-79Es human primary esophagus cancer xenografts
Protocol: as §2, §3, §4, §5, §6, §7, §8, §9

[9] = system: PHTX-11C; experiment: In vivo combination study, xenograft; design: species or system mouse; settings: PHTX-11C (270 mm^3)
[10] = system: COLO205 cancer cells; experiment: In vitro combination study with Compound 1, Cell Titer-Glo (ATP) cell viability, 72 h; format: cell-based, human; settings: Table 5 drug combined with Compound 1; 72 h;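 further: Ten-by-ten dose matrices of both agents in duplicate plus single-agent dilutions, luminescent ATP read-out, percent activity per well relative to DMSO vehicle wells, synergy call from these matrices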
[11] = system: DU-145 (Prostate); experiment: In vivo combination study, Cell Derived Xenograft; design: species or system mouse; settings: DU-145 (165 mm^3); Compound 1 60 mg/kg once daily Day 1-21; drug 10 mg/kg intravenously once weekly Days 1,8,15
Protocol: as §2
Method A; Cells were maintained in either immune deficient nude mice or immune competent mice by subcutaneous inoculation of tumor cells at various concentrations into respected mice. Method B: Patient Derived Tumor s were maintained in nude mice by subcutaneous inoculation of tumor pieces (approx. 2×2×2 mm) into nude mice. […]
Tumor size was measured by caliper and tumor volume was estimated using the equation V=(LW^2)/2, where L and W are tumor length and width, respectively and reported in cubic millimeters. […]
For synergy analyses, the observed differences in the log tumor values were used to calculate AUC values for each animal. […] The AUC for the control, or vehicle, group was calculated using the predicted values from the pairwise models described above. […]
where Ak and Bk are the k^th animal in the individual treatment groups and ABk is the k^th animal in combination treatment group. […] The standard error of the synergy score was calculated as the square root of the sum of squared standard errors across groups A, B, and AB. […]

[12] = system: HCT116 cancer cells; experiment: In vitro combination study with Compound 1, Cell Titer-Glo (ATP) cell viability, 72 h; format: cell-based; settings: Table 5 drug combined with Compound 1; 72 h;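 further: combination call from 10×10 dose matrices in duplicate, graded by synergy, with percent activity per well relative to DMSO vehicle controls on the same plate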
[13] = system: SW620 cancer cells; experiment: as above; format: cell-based; settings: Table 5 drug combined with Compound 1; 72 h;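 further: Ten-by-ten dose matrices of both drugs in 384-well plates, luminescent ATP read-out, synergy evaluated against single-agent and DMSO vehicle controls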
[14] = system: A549 cancer cells; experiment: as above; format: cell-based; settings: Table 5 drug combined with Compound 1; 72 h;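 further: Ten-by-ten dose matrices of the two agents in duplicate, compounds added 16 h post-plating, activity relative to DMSO vehicle wells, call reflects synergy evaluation from luminescence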
[15] = system: H460 cancer cells; experiment: as above; format: cell-based; settings: Table 5 drug combined with Compound 1; 72 h;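 further: Ten-by-ten dose matrices of both drugs alongside single-agent dilutions, luminescence read 72 hours after compound addition, percent activity per well versus vehicle (DMSO) plate controls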
[16] = Compound 1 40 mg/kg once daily Day 1-21, drug 15 mg/kg intravenously Days 1-3, 8-10, 15-17
[17] = Compound 1 40 mg/kg once daily Day 1-21, drug 25 mg/kg intravenously Days 1-3, 8-10, 15-17
[18] = Compound 1 60 mg/kg once daily Day 1-21, drug 15 mg/kg intravenously Days 1-3, 8-10, 15-17
[19] = Compound 1 60 mg/kg once daily Day 1-21, drug 25 mg/kg intravenously Days 1-3, 8-10, 15-17

For `O=c1[nH]cc(F)c(=O)[nH]1` [Fluorouracil], the “Result (combination with Compound 1, tumor growth)” value (shortened to “Result”) [1, 16] was “Additive”, the “Result” value [1, 17] was “Additive” and the “Result” value [1, 18] was “Additive”. For the same molecule, the “Result” value [1, 19] was “subadditive”, the “In vitro combination effect with Compound 1, Lung H-1650” value [2] was “Additive” and the “In vitro combination effect with Compound 1, Ovary SKOV3” value [3] was “Additive”. For the same molecule, the “In vitro combination effect with Compound 1, Pancreas MIA-PACA-2” value [4] was “Additive”, the “In vitro combination effect with Compound 1, Lung CALU6” value [5] was “Synergy” and the “Result” value ([6]; PHTXM-35Es (240 mm^3), Compound 1 60 mg/kg once daily Day 1-21, drug 25 mg/kg intravenously Days 1-3, 8-10, 15-17) was “Additive”. The “Result” value ([7]; PHTXM-90Es (185 mm^3), Compound 1 60 mg/kg once daily Day 1-21, drug 25 mg/kg intravenously Days 1-3, 8-10, 15-17) was “Additive”, the “Result” value ([8]; PHTXM-79Es (160 mm^3), Compound 1 60 mg/kg once daily Day 1-21, drug 25 mg/kg intravenously Days 1-3, 8-10, 15-17) was “Synergistic” and the antitumor activity ([8]; FIG. 5B) was “strong antitumor activity compared to either single treatment alone”. For the same molecule, the “Result” value [9, 16] was “Additive”, the “Result” value [9, 17] was “Additive” and the “Result” value [9, 18] was “Additive”. The “Result” value [9, 19] was “subadditive”.
With `CC(=O)O[C@@]12CO[C@@H]1C[C@H](O)[C@@]1(C)C(=O)[C@H](O)C3=C(C)[C@@H](OC(=O)[C@H](O)[C@@H](NC(=O)OC(C)(C)C)c4ccccc4)C[C@@](O)([C@@H](OC(=O)c4ccccc4)[C@H]21)C3(C)C` [Docetaxel] the “Call, anti-proliferative effect of combination with Compound 1, COLO205” value [10] was “Additivity (0.7 to 1.3)”, the “Result” value ([6]; PHTXM-35Es (150 mm^3) FIG. 4B, Compound 1 40 mg/kg once daily Day 1-21, drug 10 mg/kg intravenously once weekly Days 1,8,15) was “Synergistic” and the “Result” value ([6]; PHTXM-35Es (150 mm^3) FIG. 4B, Compound 1 60 mg/kg once daily Day 1-21, drug 10 mg/kg intravenously once weekly Days 1,8,15) was “Additive”. The “Result” value ([6]; PHTXM-35Es (190 mm^3), Compound 1 40 mg/kg once daily Day 1-21, drug 10 mg/kg intravenously once weekly Days 1,8,15) was “Synergistic”, the “Result” value ([6]; PHTXM-35Es (190 mm^3), Compound 1 60 mg/kg once daily Day 1-21, drug 10 mg/kg intravenously once weekly Days 1,8,15) was “Synergistic” and the antitumor activity ([6]; combined with Compound 1, PHTXM-35Es human primary esophagus cancer xenografts, FIG. 4B) was “strong antitumor activity compared to either single treatment alone”. For the same molecule, the “Result” value ([7]; PHTXM-90Es (220 mm^3), Compound 1 40 mg/kg once daily Day 1-21, drug 10 mg/kg intravenously once weekly Days 1,8,15) was “Additive”, the “Result” value ([7]; PHTXM-90Es (220 mm^3), Compound 1 60 mg/kg once daily Day 1-21, drug 10 mg/kg intravenously once weekly Days 1,8,15) was “Additive” and the “Result” value ([8]; PHTX-79Es (135 mm^3) FIG. 5A, Compound 1 40 mg/kg once daily Day 1-21, drug 10 mg/kg intravenously once weekly Days 1,8,15) was “Synergistic”. For the same molecule, the “Result” value ([8]; PHTX-79Es (135 mm^3) FIG. 5A, Compound 1 60 mg/kg once daily Day 1-21, drug 10 mg/kg intravenously once weekly Days 1,8,15) was “additive”, the antitumor activity ([8]; FIG. 5A) was “strong antitumor activity compared to either single treatment alone” and the “Result” value [11] was “Additive”. For the same molecule, the “Call, anti-proliferative effect of combination with Compound 1, HCT116” value [12] was “Additivity (0.7 to 1.3)”, the “Call, anti-proliferative effect of combination with Compound 1, SW620” value [13] was “Synergy (0 to 0.7)” and the “Call, anti-proliferative effect of combination with Compound 1, A549” value [14] was “Subadditivity (1.3 to 2)”. The “Call, anti-proliferative effect of combination with Compound 1, H460” value [15] was “Additivity (0.7 to 1.3)”.
